Legend:
[1] = system: lymphoma cells (mixed, B-cell lymphoma, plasmacytoma, plasmoblastoma); test: Cytokine stimulation of lymphoma cells off stroma, Alamar Blue assay; format: cell-based, mouse; details: 2 days after stroma removal; cytokines 0-50 ng/ml; IL-6: plasmacytomas and mixed, IL-7: B-cell and mixed lymphomas, not plasmoblastomas
Protocol: Luminescence was measured after 0 h, 24 h and 48 h after seeding of 2×10E4 luciferased lymphoma cells on the stroma cells; and F: RT-PCR analysis of transcripts from Hh pathway members and targets in spleen lymphocytes and different lymphoma cell lines.
Cell culture experiments: Lymphoma cells were infected with a retrovirus containing a pMSCV IRES puro-luc sequence and selected for 7 days with puromycin on puromycin-resistant Cdkn2a−/− stroma. […] Both were dissolved as x 1,000 stocks in DMSO. SCF was obtained from RDI, and all other cytokines were obtained from R&D systems. 5E1 anti-ShhN monoclonal antibody was obtained from the developmental hybridoma bank and was used at a concentration of 10 μg/ml. For cytokine stimulation and Shh inhibition in supernatant lymphoma cells were seeded into 96-well plates at a density of 20,000 cells per well and mitochondrial activity of viable cells was measured with an Alamar Blue Assay as described.

Eμ-Myc lymphoma cells = test: Luciferase assay and light microscopy of luciferased lymphoma cells on stromal layer; format: cell-based, mouse
Protocol: For Shh pathway inhibition on stroma, 6200 stroma cells were seeded per 96-well. After 24 hours 20,000 luciferased lymphoma cells were seeded on the stroma cells and 2 hours later compound or DMSO was added. Luciferase assay was performed with Bright-glow reagent as described. To generate cells overexpressing Hh pathway members, lymphoma cells were infected with Smo, Smo 535, Smo 562, Gli1 and Fused-pMSCV IRES GFP constructs and then sorted for GFP positive cells.
In order to investigate whether the Hh signalling pathway does indeed contribute to the survival and proliferation of lymphoma cells growing on an intact stromal layer, lymphoma cells were luciferased using a retrovirus expressing a puromycin/Luc fusion cassette. 2×10E4 lymphoma cells constitutively expressing luciferase were added to each 96-well containing a stromal layer (not expressing luciferase) isolated from Cdkn2a^−/− mice. A total of 34 individual Eμ-Myc-lymphomas and 8 Cdkn2a-lymphomas were tested. A luciferase assay was performed as a readout for cell viability and proliferation and results were also documented by light microscopy.

Row | Molecule | number of viable lymphoma cells / survival after cytokine stimulation [1] | luciferase activity (viable lymphoma cells) (Eμ-Myc lymphoma cells; Myc-Ly6, 48 hours, 0, 0.5, 1, 5 and 10 μM) | IC50 (Eμ-Myc lymphoma cells; most responsive lymphomas, 48 h on stromal layer, read-out: IC50 (concentration needed for 50% of maximal inhibition))
1 | GM-CSF: cytokine / growth factor | no effect on lymphocyte growth |  | 
2 | IL-6: cytokine / growth factor | enhance survival |  | 
3 | Cc1nn(-c2ccccc2)c(C)c1/C=N/N1CCN(Cc2ccccc2)CC1 [SANT-1] |  | reduced in a dose dependant manner | 1000 to 3000 nM
4 | SCF: cytokine / growth factor, obtained from RDI | no effect on lymphocyte growth |  | 
5 | IL-7: cytokine / growth factor (protein, UniProt P13232 26-177, looked up) Interleukin-7: DCDIEGKDGKQYESVLMVSIDQLLDSMKEIGSNCLNNEFNFFKRHICDANKEGMFLFRAARKLRQFLKMNSTGDFDLHLLKVSEGTTILLNCTGQVKGRKPAALGEAQPTKSLEENKSLKEQKKLNDLCFLKRLLQEIKTCWNKILMGTKEH | enhance survival |  | 
6 | Wnt3a: growth factor (protein, UniProt P56704 19-352, looked up) Protein Wnt-3a: SYPIWWSLAVGPQYSSLGSQPILCASIPGLVPKQLRFCRNYVEIMPSVAEGIKIGIQECQHQFRGRRWNCTTVHDSLAIFGPVLDKATRESAFVHAIASAGVAFAVTRSCAEGTAAICGCSSRHQGSPGKGWKWGGCSEDIEFGGMVSREFADARENRPDARSAMNRHNNEAGRQAIASHMHLKCKCHGLSGSCEVKTCWWSQPDFRAIGDFLKDKYDSASEMVVEKHRESRGWVETLRPRYTYFKVPTERDLVYYEASPNFCEPNPETGSFGTRDRTCNVSSHGIDGCDLLCCGRGHNARAERRREKCRCVFHWCCYVSCQECTRVYDVHTCK | no effect on lymphocyte growth |  | 
7 | IL-11: cytokine / growth factor (protein, UniProt P20809 22-199, looked up) Interleukin-11: PGPPPGPPRVSPDPRAELDSTVLLTRSLLADTRQLAAQLRDKFPADGDHNLDSLPTLAMSAGALGALQLPGVLTRLRADLLSYLRHVQWLRRAGGSSLKTLEPELGTLQARLDRLLRRLQLLMSRLALPQPPPDPPAPPLAPPSSAWGGIRAAHAILGGLHLTLDWAVRGLLLLKTRL | no effect on lymphocyte growth |  | 
